Measured values published in publication PMC4774972, “Activity and Predicted Nephrotoxicity of Synthetic Antibiotics Based on Polymyxin B” (Journal of Medicinal Chemistry, 2016).
In brackets after ≈: the same amount, converted by molar mass. Numbered stars: 1 amine (or outer) side, 2 acyl side, 3 side chain; on linkers, the order of the positions; unused ones are H or OH. Bridge positions count the residues as written; N and C are the ends. Square brackets hold non-standard residues; d marks the D form. Peptide text beside a SMILES is read from it. * marks the point of attachment. Octanoyl(6-Me) = CCC(C)CCCCC(=O)*; NH(2-ClPh) = Clc1ccccc1N*; Octanoyl = CCCCCCCC(=O)*; Dab = NCC[C@H](N)C(=O)O; CO = O=C([*:1])[*:2]

How the values were obtained:
[1] = test system: P. aeruginosa PA9704, PmxR; details: MIC P. aeruginosa PA9704, PmxR (µg/mL)
P. aeruginosa ATCC 27853 = details: MIC P. aeruginosa ATCC 27853 (µg/mL)
[2] = test system: K. pneumoniae CI 138-16357-20362, PmxR; details: MIC K. pneumoniae CI 138-16357-20362, PmxR (µg/mL)
K. pneumoniae ATCC 13883 = details: MIC K. pneumoniae ATCC 13883 (µg/mL)
[3] = test system: K. pneumoniae ATCC 700603, MDR; details: MIC K. pneumoniae ATCC 700603, MDR(µg/mL)
A. baumannii ATCC 19606 = details: MIC A. baumannii ATCC 19606 (µg/mL)
[4] = test system: A. baumannii CI Ptyela 100734512:2, PmxR; details: MIC A. baumannii CI Ptyela 100734512:2, PmxR (µg/mL)
[5] = test system: S. aureus ATCC 25923, MSSA; details: MIC S. aureus ATCC 25923, MSSA (µg/mL)
[6] = test system: K. pneumoniae CI Koprana 100650661:1, PmxR; details: MIC K. pneumoniae CI Koprana 100650661:1, PmxR (µg/mL)
[7] = test system: K. pneumoniae ATTC BAA-2146, NDM-1 pos; details: MIC K. pneumoniae ATTC BAA-2146, NDM-1 pos (µg/mL)
E. coli ATCC 25922 = details: MIC E. coli ATCC 25922 (µg/mL)
[8] = test system: P. aeruginosa FADDI-PA070, PmxR; details: MIC P. aeruginosa FADDI-PA070, PmxR (µg/mL)
HepG2 = details: CC50 HepG2 (µM)
[9] = test system: S. aureus ATCC 25923, MSSA; experiment: microbe, parasite or virus in culture; format: cell-based, Staphylococcus aureus; details: MHB, 5 × 10^5 CFU/mL, read visually after 18 h at 37 °C
Description: (§1) Bacteria were either obtained from American Type Culture Collection (ATCC; Manassas, VA, USA) or independent academic clinical isolate collections, as listed in Table S2. Bacteria were cultured in nutrient broth (NB; Bacto Laboratories, catalog no. 234000) or Muller Hinton broth (MHB; Bacto Laboratories, catalog no. 211443) at 37 °C overnight with shaking (∼180 rpm). A sample of each culture was then diluted 50-fold in fresh MHB and incubated at 37 °C for 1.5–3 h with shaking (∼180 rpm). Compound stock solutions were prepared as 0.64 or 2.56 mg/mL in water. The compounds, at twice the final desired concentration, were serially diluted 2-fold across the wells of 96-well plates (Polystyrene, Corning, catalogue No. 3370). Mid log phase bacterial cultures (after 1.5–3 h incubation) were diluted to a final concentration of 5 × 10^5 colony forming units (CFU)/mL, and 50 μL was added to each well giving a final compound concentration range of 32 μg/mL to 0.015 μg/mL (128–0.06 μg/mL for colistin and polymyxin B against the polymyxin resistant clinical isolates). MICs were determined visually after 18 h of incubation at 37 °C, with the MIC defined as the lowest compound concentration at which no bacterial growth was visible.
(§2) Table S2. Bacterial strains used for Minimum Inhibitory Concentration (MIC) […]
(§3) Organism Strain Strain description Strain Source
(§4) Escherichia coli ATCC 25922 FDA strain Seattle 1946 ATCC
(§5) Klebsiella pneumoniae ATCC 13883 Control strain ATCC
(§6) Klebsiella pneumoniae ATCC 700603 Multi-drug resistant ATCC
(§7) Klebsiella pneumoniae BAA-2146 Metallo-beta-lactamase- ATCC
(§8) Acinetobacter baumannii ATCC 19606 Type strain ATCC
(§9) Pseudomonas aeruginosa ATCC 27853 Type strain ATCC
(§10) Pseudomonas aeruginosa FADDI-PA070 Clinical isolate, Nation and Li labs, polymyxin resistant Monash University
(§11) Clinical isolate, Wang Hengzhuang, Pseudomonas aeruginosa PA9704 polymyxin resistant University Hospital of […]
(§12) Ptyela Clinical isolate, Ilias Karaiskos and Acinetobacter baumannii Carbapenem & Helen Giamarellou
(§13) Clinical isolate, Medicine, Hygeia
(§14) Klebsiella pneumoniae Koprana Carbapenem, & General Hospital, […]
(§15) Clinical isolate, (Instituto Dante […]
(§16) polymyxin resistant Cardiologia, São […]

[10] = test system: K. pneumoniae CI 138-16357-20362, PmxR; experiment: microbe, parasite or virus in culture; format: cell-based, Klebsiella pneumoniae; details: carbapenem & polymyxin resistant clinical isolate; MHB, 5 × 10^5 CFU/mL, 18 h at 37 °C
Description: as §1, §2, §3, §4, §5, §6, §7, §8, §9, §10, §11, §12, §13, §14, §15, §16

[11] = test system: K. pneumoniae CI Koprana 100650661:1, PmxR; experiment: microbe, parasite or virus in culture; format: cell-based, Klebsiella pneumoniae; details: carbapenem & polymyxin resistant clinical isolate; MHB, 5 × 10^5 CFU/mL, 18 h at 37 °C
Description: as §1, §2, §3, §4, §5, §6, §7, §8, §9, §10, §11, §12, §13, §14, §15, §16

HepG2 cells = experiment: Cytotoxicity assay (resazurin assay); format: cell-based, human; details: 4000 cells/well, 24 h incubation with compound, fluorescence 560/590
Description: Cytotoxicity to HEK293 and HepG2 cells was determined using the resazurin assay.[67],[68] […] Compounds were then added into each well. After 24 h incubation, 5 μM resazurin was added per well and incubated at 37 °C for 2 h. Fluorescence intensity was then read using a Polarstar Omega with excitation/emission 560/590. The data were then analyzed using GraphPad Prism 6 software. CC50 values were determined using GraphPad Prism 6 software (Inc. La Jolla, CA).

[12] = test system: P. aeruginosa FADDI-PA070, PmxR; format: cell-based, Pseudomonas aeruginosa; details: polymyxin resistant clinical isolate; MHB, 5 × 10^5 CFU/mL, 18 h at 37 °C
Description: as §1, §2, §3, §4, §5, §6, §7, §8, §9, §10, §11, §12, §13, §14, §15, §16

[13] = test system: A. baumannii CI Ptyela 100734512:2, PmxR; experiment: microbe, parasite or virus in culture; format: cell-based, Acinetobacter baumannii; details: carbapenem & polymyxin resistant clinical isolate; MHB, 5 × 10^5 CFU/mL, 18 h at 37 °C
Description: as §1, §2, §3, §4, §5, §6, §7, §8, §9, §10, §11, §12, §13, §14, §15, §16

[14] = test system: P. aeruginosa PA9704, PmxR; format: cell-based, Pseudomonas aeruginosa; details: polymyxin resistant clinical isolate; MHB, 5 × 10^5 CFU/mL, 18 h at 37 °C
Description: as §1, §2, §3, §4, §5, §6, §7, §8, §9, §10, §11, §12, §13, §14, §15, §16

Compound	MIC [1] [µg/mL]	MIC (P. aeruginosa ATCC 27853) [µg/mL]	MIC [2] [µg/mL]	MIC (K. pneumoniae ATCC 13883) [µg/mL]	MIC [3] [µg/mL]	MIC (A. baumannii ATCC 19606) [µg/mL]	MIC [4] [µg/mL]	MIC [5] [µg/mL]	MIC [6] [µg/mL]	MIC [7] [µg/mL]	MIC (E. coli ATCC 25922) [µg/mL]	MIC [8] [µg/mL]	CC50 (HepG2) [µM]	MIC S. aureus ATCC 25923, MSSA [9] [µg/mL]	MIC K. pneumoniae CI 138-16357-20362, PmxR [10] [µg/mL]	MIC K. pneumoniae CI Koprana 100650661:1, PmxR [11] [µg/mL]	HepG2 - CC50 (HepG2 cells) [µM]	MIC P. aeruginosa FADDI-PA070, PmxR [12] [µg/mL]	MIC A. baumannii CI Ptyela 100734512:2, PmxR [13] [µg/mL]	MIC P. aeruginosa PA9704, PmxR [14] [µg/mL]
CCC(C)CCCCC(=O)N[C@@H](CCN)C(=O)N[C@H](C(=O)N[C@@H](CCN)C(=O)N[C@H]1CCNC(=O)[C@H]([C@@H](C)O)NC(=O)[C@H](CCN)NC(=O)[C@H](CCN)NC(=O)[C@H](CC(C)C)NC(=O)[C@@H](Cc2ccccc2)NC(=O)[C@H](CCN)NC1=O)[C@@H](C)O (stereo partly shown)	128 (≈ 106 µM)	0.5 (≈ 0.415 µM)	64 (≈ 53.2 µM)	1 (≈ 0.831 µM)	0.5 (≈ 0.415 µM)	0.25 (≈ 0.208 µM)	64 (≈ 53.2 µM)	> 64	64 (≈ 53.2 µM)	0.25 (≈ 0.208 µM)	1 (≈ 0.831 µM)	32 (≈ 26.6 µM)	> 300							
CCC(C)CCCCC(=O)N[C@@H](CCN)C(=O)N[C@H](C(=O)N[C@@H](CCN)C(=O)N[C@H]1CCNC(=O)[C@H]([C@@H](C)O)NC(=O)[C@H](CCN)NC(=O)[C@H](CCN)NC(=O)[C@H](CC(C)C)NC(=O)[C@@H](CC(C)C)NC(=O)[C@H](CCN)NC1=O)[C@@H](C)O (stereo partly drawn) ({Octanoyl(6-Me)}-[Dab]T[Dab][Dab][Dab][dL]L[Dab][Dab]T; lactam 4-C)	128 (≈ 109 µM)	0.5 (≈ 0.428 µM)	64 (≈ 54.7 µM)	0.25 (≈ 0.214 µM)	0.25 (≈ 0.214 µM)	0.25 (≈ 0.214 µM)	> 64	> 128	> 128	0.25 (≈ 0.214 µM)	0.25 (≈ 0.214 µM)	> 32	> 300							
CCCCCCCC(=O)N[C@@H](CCN)C(=O)N[C@H](C(=O)N[C@@H](CCN)C(=O)N[C@H]1CCNC(=O)[C@H]([C@@H](C)O)NC(=O)[C@H](CCN)NC(=O)[C@H](CCN)NC(=O)[C@H](CC(C)C)NC(=O)[C@@H](Cc2ccccc2)NC(=O)[C@H](CCN)NC1=O)[C@@H](C)O [Compound 11, polymyxin B3] (Octanoyl-[Dab]T[Dab][Dab][Dab][dF]L[Dab][Dab]T; lactam 4-C)	> 128		> 128				> 64	> 128	> 128			> 32	> 300	>128	>128	>128	>300	>32	>64	
CC(C)C[C@@H]1NC(=O)[C@@H](Cc2ccccc2)NC(=O)[C@H](CCN)NC(=O)[C@@H](NC(=O)[C@H](CCN)NC(=O)[C@@H](NC(=O)[C@H](CCN)NC(=O)Nc2ccccc2Cl)[C@@H](C)O)CCNC(=O)[C@H]([C@@H](C)O)NC(=O)[C@H](CCN)NC(=O)[C@H](CCN)NC1=O [Compound 13] ({NH(2-ClPh)-CO}-[Dab]T[Dab][Dab][Dab][dF]L[Dab][Dab]T; lactam 4-C)	> 32		> 32				> 32	> 32	> 32			> 32	> 300	>32	>32	>32	>300		>32	>32
